According to US4925930A, “Synthesis and anti-leukemic activity of alkyl-1-(β-D-ribofuranosyl)[1,2,4]triazole-3-carboximidates” (Nucleic Acid Research Institute, priority 1988, dated 1990):
Several values for one entry are separate records, joined by “and”; a condition that tells them apart may be missing. Identical values can stand only once. Like-named read-outs stand apart in the source and are kept apart here.

What was measured:
[1] = system: HIV; conditions: human T lymphocytes; 50 μg/mL; cited from earlier work
[2] = system: herpes simplex type 2 viruses; format: cell-based; conditions: cell culture
[3] = system: parainfluenza type 3; format: cell-based; conditions: cell culture
[4] = system: CCRF-CEM human T lymphoblastic leukemia; assay: In vitro growth inhibition of CCRF-CEM; format: cell-based; conditions: in vitro cell culture
Procedure: (§1) Compounds (4)and (5) were also tested in vitro for their capacity to inhibit the growth of L1210 murine lymphocytic leukemia, WI-L2 human B lymphoblastic leukemia, and CCRF-CEM human T lymphoblastic leukemia in vitro.

[5] = system: visna; format: cell-based; conditions: cell culture
[6] = in water; for maximum dosage which could be delivered as a single bolus (maximum soluble dosage): 0.01 ml/gram mouse weight
[7] = system: murine leukemia L1210; assay: in vivo; format: in vivo; conditions: for Residual Cell Population After Last Treatment: calculated from inoculum response data; for antitumor activity in vivo: summary, as per Examples 6 and 7 (L1210 and Friend leukemia)
Text: (§2) In Vivo assessments of therapeutic efficacy and host toxicity with murine leukemia L1210 were made as detailed in M. Kuehl; D. I. Brixner; A. D. Broom; T. L. Avery; R. L. Blakley, Cancer Res., 1988, 48, 1481.
(§3) ^b Treatment responses (6 mice/treatment group) presented as % T/C
(§4) ^c Calculations of residual leukemic cell populations were made using
(§5) ^a Except where otherwise indicated, all solutions were delivered ip

[8] = system: adeno type 2; format: cell-based; conditions: cell culture
[9] = system: Friend leukemia; conditions: for Spleen Weight / tox (in Spleen Weight column): day 1,3,5,7,9,11, ip; for Spleen Weight: control w/tumor 1538 ± 561, wo/tumor 82 ± 11; for Friend leukemia-related splenomegaly diminished: nontoxic dosing
[10] = system: semliki forest; format: cell-based; conditions: cell culture
[11] = system: L1210 murine lymphocytic leukemia; assay: In vitro cytotoxicity / growth inhibition of L1210 murine lymphocytic leukemia; format: cell-based; conditions: for in vitro growth inhibition: L1210, in vitro cell culture; for cytotoxicity for L1210 cells: cells growing in vitro
[12] = system: viruses; assay: Cell culture antiviral activity (general statement); format: cell-based
[13] = system: influenza A; format: cell-based
[14] = system: WI-L2 human B lymphoblastic leukemia; assay: In vitro growth inhibition of WI-L2; format: cell-based; conditions: in vitro cell culture
Procedure: as §1

[15] = system: rhino A; format: cell-based; conditions: cell culture
[16] = in vivo; format: in vivo; conditions: mouse, in vivo, ip, read-out: maximum non-lethal dosage
Text: as §2, §3, §4, §5

[17] = bid, day 1,3,5,7, 480 mg/kg, ip
[18] = qd, day 1-7, 480 mg/kg, ip, 480 mg/kg
[19] = qd, day 1, 480 mg/kg, ip, 480 mg/kg

NC(=O)c1ncn([C@@H]2O[C@H](CO)[C@@H](O)[C@H]2O)n1 [ribavirin, 1-(β-D-ribofuranosyl)-[1,2,4]triazole-3-carboxamide]
inhibition of HIV replication [1]: inhibits the replication

COC(=N)c1ncn([C@@H]2O[C@H](CO)[C@@H](O)[C@H]2O)n1 [Compound (4), Methyl-1-(β-D-ribofuranosyl)[1,2,4]triazole-3-carboximidate]
antiviral activity [2]: inactive | antiviral activity [3]: inactive | in vitro growth inhibition [4]: neither compound demonstrated in vitro growth inhibition | antiviral activity [5]: inactive | water solubility relative to biological activity [6]: limited water solubility | maximum dosage which could be delivered as a single bolus (maximum soluble dosage) [6]: 480 mg/kg | Postinoculation Lifespan (% T/C) [7, 17]: 162 % T/C | Residual Cell Population After Last Treatment [7, 17]: 12 % of control | Postinoculation Lifespan (% T/C) ([7]; bid, day 1-7, 480 mg/kg, ip): 101 % T/C | Postinoculation Lifespan (% T/C) ([7]; bid, day 1, 480 mg/kg, ip): 125 % T/C | Residual Cell Population After Last Treatment ([7]; bid, day 1, 480 mg/kg, ip): 9 % of control | T/C ([7]; qd day 1, maximum soluble dosage, 480 mg/kg, repeated): ≈ 115 | Postinoculation Lifespan (% T/C) ([7]; qd, day 1,3,5,7, 480 mg/kg, ip): 121 % T/C | Residual Cell Population After Last Treatment ([7]; qd, day 1,3,5,7, 480 mg/kg, ip): 46 % of control | Postinoculation Lifespan (% T/C) ([7]; qd, day 1,4,7, 480 mg/kg, ip): 119 % T/C | Residual Cell Population After Last Treatment ([7]; qd, day 1,4,7, 480 mg/kg, ip): 73 % of control | Postinoculation Lifespan (% T/C) [7, 18]: 162 % T/C and 142 % T/C | Residual Cell Population After Last Treatment [7, 18]: 12 % of control and 7 % of control | Postinoculation Lifespan (% T/C) ([7]; qd, day 1-7, 480 mg/kg, po): 97 % T/C | Residual Cell Population After Last Treatment ([7]; qd, day 1-7, 480 mg/kg, po): 139 % of control | Postinoculation Lifespan (% T/C) [7, 19]: 113 % T/C and 114 % T/C and 116 % T/C | Residual Cell Population After Last Treatment [7, 19]: 32 % of control and 30 % of control and 21 % of control | lethal toxicity ([7]; qid day 1, 480 mg/kg/injection): lethally toxic | Postinoculation Lifespan (% T/C) ([7]; qid, day 1, 480 mg/kg, ip): 60 % T/C | antitumor activity in vivo [7]: significant antitumor activity in vivo | T/C ([7]; tid day 1, 480 mg/kg/injection): 153 | leukemic cell kill ([7]; tid day 1, 480 mg/kg/injection): > 99% | Postinoculation Lifespan (% T/C) ([7]; tid, day 1,3,5,7, 480 mg/kg, ip): 76 % T/C | Postinoculation Lifespan (% T/C) ([7]; tid, day 1-7, 480 mg/kg, ip): 61 % T/C | Postinoculation Lifespan (% T/C) ([7]; tid, day 1, 480 mg/kg, ip): 153 % T/C | Residual Cell Population After Last Treatment ([7]; tid, day 1, 480 mg/kg, ip): 0.6 % of control | antiviral activity [8]: inactive | Spleen Weight ([9]; bid, 288 mg/kg, P < 0.005): 150 ± 53 mg | tox (in Spleen Weight column) ([9]; bid, 480 mg/kg): tox | Friend leukemia-related splenomegaly diminished [9]: significantly diminished | Spleen Weight ([9]; qd, 288 mg/kg, P < 0.02): 599 ± 133 mg | Spleen Weight ([9]; qd, 480 mg/kg, P < 0.01): 216 ± 60 mg | antiviral activity [10]: inactive | in vitro growth inhibition [11]: neither compound demonstrated in vitro growth inhibition | cytotoxicity for L1210 cells [11]: neither compound (4) nor compound (5) was cytotoxic | cell culture antiviral activity [12]: devoid themselves of cell culture antiviral activity | antiviral activity [13]: inactive | in vitro growth inhibition [14]: neither compound demonstrated in vitro growth inhibition | antiviral activity [15]: inactive

CCOC(=N)c1ncn([C@@H]2O[C@H](CO)[C@@H](O)[C@H]2O)n1 [Compound (5), Ethyl-1-(β-D-ribofuranosyl)[1,2,4]triazole-3-carboximidate]
antiviral activity [2]: inactive | antiviral activity [3]: inactive | in vitro growth inhibition [4]: neither compound demonstrated in vitro growth inhibition | antiviral activity [5]: inactive | maximum dosage which could be delivered as a single bolus (maximum soluble dosage) [6]: 3704 mg/kg | MTD ([16]; qd day 1): 1330 mg/kg | MTD ([16]; qd days 1-7): 288 mg/kg | dosage/schedule dependence of anti-L1210 activity ([7]; mouse, in vivo): more dosage than schedule dependent | lethal toxicity for L1210-inoculated mice ([7]; mouse, in vivo, 3704 mg/kg): lethally toxic | therapeutic efficacy ([7]; qd day 1, 288 mg/kg): decline of therapeutic efficacy | leukemic cell kill ([7]; qd day 1, 1333 mg/kg, gauged by inoculum response data): 98.7% | T/C ([7]; qd day 1, maximum non-lethal dosage, 1333 mg/kg): 149 | lethal toxicity ([7]; qd days 1-7, compared with qd day 1): lethal toxicity was produced by lower dosages | increase in mean life span (T/C) ([7]; qd days 1-7, maximum non-lethal dosage, 288 mg/kg): 144 | Postinoculation Lifespan (% T/C) ([7]; qd, day 1-7, 288 mg/kg, ip): 144 % T/C | Residual Cell Population After Last Treatment ([7]; qd, day 1-7, 288 mg/kg, ip): 1.7 % of control | Postinoculation Lifespan (% T/C) ([7]; qd, day 1-7, 480 mg/kg, ip): 134 % T/C | Postinoculation Lifespan (% T/C) ([7]; qd, day 1-7, 800 mg/kg, ip): 70 % T/C | Postinoculation Lifespan (% T/C) ([7]; qd, day 1, 288 mg/kg, ip): 114 % T/C | Residual Cell Population After Last Treatment ([7]; qd, day 1, 288 mg/kg, ip): 27.0 % of control | Postinoculation Lifespan (% T/C) ([7]; qd, day 1, 480 mg/kg, ip): 149 % T/C | Residual Cell Population After Last Treatment ([7]; qd, day 1, 480 mg/kg, ip): 1.1 % of control | Postinoculation Lifespan (% T/C) ([7]; qd, day 1, 800 mg/kg, ip, 800 mg/kg): 159 % T/C and 144 % T/C | Postinoculation Lifespan (% T/C) ([7]; qd, day 1, 1333 mg/kg, ip): 149 % T/C | Residual Cell Population After Last Treatment ([7]; qd, day 1, 1333 mg/kg, ip): 1.3 % of control | Postinoculation Lifespan (% T/C) ([7]; qd, day 1, 2222 mg/kg, ip): 92 % T/C | Postinoculation Lifespan (% T/C) ([7]; qd, day 1, 3704 mg/kg, ip): 48 % T/C | antitumor activity in vivo [7]: significant antitumor activity in vivo | antiviral activity [8]: inactive | Friend leukemia-related splenomegaly diminished [9]: not | Spleen Weight ([9]; qd, 480 mg/kg): 1257 ± 185 mg | tox (in Spleen Weight column) ([9]; qd, 800 mg/kg): tox | tox (in Spleen Weight column) ([9]; qd, 1333 mg/kg): tox | antiviral activity [10]: inactive | in vitro growth inhibition [11]: neither compound demonstrated in vitro growth inhibition | cytotoxicity for L1210 cells [11]: neither compound (4) nor compound (5) was cytotoxic | cell culture antiviral activity [12]: devoid themselves of cell culture antiviral activity | antiviral activity [13]: inactive | in vitro growth inhibition [14]: neither compound demonstrated in vitro growth inhibition | antiviral activity [15]: inactive
